Measurements: patent US20240101602A1, “ANTIMICROBIAL PEPTIDES AND METHOD OF PREVENTING OR TREATING INFECTION BY USING THE SAME” (priority 2020, published 2024)

How the values were obtained:
[1] = system: Xanthomonas campestris pv. campestris strain Xcc17; assay: MIC and MBC by serial dilution in 96-well plate; type: cell-based; details: Xcc Xcc17; Table 7
Description: (§1) The effect of peptide length on the antimicrobial activity was investigated by deciding the minimal inhibitory concentration (MIC) and minimal bactericidal concentration (MBC) for each peptide against the pathogen with the media and growth conditions of phytopathogenic bacteria and E. coli as described in Table 1. Single bacterial colony grown on an optimal rich agar medium was picked, and each grew in 3 mL of the same rich liquid medium for 4 to 6 h.
(§2) For experiments carried out in the rich medium, the bacterial broth culture was then diluted in the same medium to give a final concentration of OD600=0.08, and then further diluted 100 folds in the same medium.
(§3) For experiments carried out in the minimal medium, the bacterial cells were collected from the bacterial liquid culture by centrifugation, re-suspended in an optimal minimal medium to give a final concentration of OD600=0.08, and then further diluted 100 folds in the same minimal medium.
(§4) Fifty microliters of serially diluted peptides (2-fold the final concentration) were added in a 96-well polystyrene plate with 50 μL of the bacterial culture. The final concentrations of peptides were 0, 2, 4, 8, 16 and 32 μg/mL. The plates were incubated at an optimal temperature without shaking.
(§5) MBC was determined as the lowest peptide concentration at which no colonies formed.

[2] = system: Xanthomonas euvesicatoria strain Xvt28; assay: MIC and MBC by serial dilution in 96-well plate; type: cell-based; details: Xev Xvt28; Table 7
Description: as §1, §2, §3, §4, §5

[3] = system: bacteria, fungal spores, and fungal mycelia; type: cell-based; details: SYTOX Green, crude peptides, room temperature in dark for 2 h
Erwinia chrysanthemi = type: cell-based
In short: (§6)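 Bacteria were grown 4–6 h, set to OD600=0.08 in rich or minimal medium, then diluted 100-fold. This inoculum was mixed 1:1 with 2-fold serial peptide dilutions and incubated static at optimal temperature. MIC was read from growth and MBC taken as the lowest concentration giving no colonies.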

[4] = system: Pectobacterium carotovorum subsp. carotovorum; type: cell-based
In short: as §6

[5] = system: Ralstonia solanacearum strain Pss190; details: Rs Pss190; optimal minimal medium, crude peptides (Table 9)
[6] = system: Staphylococcus epidermidis ATCC 14990
[7] = system: Staphylococcus aureus BCRC 10777

Substance Ac-WKKLKKLLKKL-NH2 [pepD3] has an MBC [1] of 2.0 µg/mL, an MIC [1] of 2.0 µg/mL and an MBC [2] of 3.0 µg/mL. For the same substance, the MIC [2] was 3.0 µg/mL, the “membranolytic effect on the cell walls of bacteria, fungal spores, and fungal mycelia” value [3] was “significant membranolytic effect” and the MIC (Erwinia chrysanthemi) was 32.0 µg/mL. For the same substance, the MBC/MFC (Erwinia chrysanthemi; Ech, optimal minimal medium, crude peptides (Table 9)) was “— (“—” indicates no antimicrobial activity being detected at the highest peptide concentration (32 μg/mL) tested in this study.)”, the MBC [4] was 14.3 µg/mL and the MBC/MFC [4] was 13.3 µg/mL. For the same substance, the MBC/MFC [5] was “— (“—” indicates no antimicrobial activity being detected at the highest peptide concentration (32 μg/mL) tested in this study.)”, the MIC [5] was “— (“—” indicates no antimicrobial activity being detected at the highest peptide concentration (32 μg/mL) tested in this study.)” and the MBC [6] was 32 µg/mL. It also gave an MIC [6] of 16 µg/mL, an MBC [7] of 32 µg/mL and an MIC [7] of 16 µg/mL.
